From patent US20230085307A1, “PYRIDAZINONE COMPOUND AND HERBICIDE” (NISSAN CHEMICAL CORPORATION, priority 2019, published 2023)

Assays:
[1] = system: redroot pigweed; experiment: Test Example 5: herbicidal effect by foliage application, plastic box (Table 20, symbol N); format: in vivo, redroot pigweed (Amaranthus retroflexus); conditions: foliage application; for N: redroot pigweed, herbicidal effect grade: 320 g/ha, three weeks after application
Summary of the method: (§1)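 Sow seeds spot-wise in sterilized diluvial soil; cover with ~1.5 cm soil. Grow 14 days in greenhouse, 25° C. to 30° C. Spray foliage with emulsion diluted to predetermined amount. Rate effect after 3 weeks.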

[2] = system: Chinese sprangletop; experiment: Test Example 3: herbicidal effect by foliage application, Wagner pot (Table 18, symbol D); format: in vivo, chinese sprangletop (Leptochloa chinensis); conditions: amount of applied herbicide 320 g/ha
Summary of the method: (§2)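 Plants were sown in alluvial soil held under 0.1–0.5 cm standing water and grown 14 days in a greenhouse at 25–30 °C. An emulsifiable formulation, water-diluted to the set dose, was then sprayed onto the foliage, and effects were scored three weeks later using previously defined criteria.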

[3] = system: rice flat sedge; experiment: Test Example 3: herbicidal effect by foliage application, Wagner pot (Table 18, symbol E); format: in vivo, rice flat sedge (Cyperus iria); conditions: amount of applied herbicide 320 g/ha
Summary of the method: as §2

[4] = system: barnyard grass; experiment: Test Example 5: herbicidal effect by foliage application, plastic box (Table 20, symbol H); format: in vivo, barnyard grass (Echinochloa crus-galli); conditions: foliage application; for H: barnyard grass, herbicidal effect grade: 320 g/ha, three weeks after application
Summary of the method: as §1

[5] = system: windgrass; experiment: Test Example 5: herbicidal effect by foliage application, plastic box (Table 20, symbol L); format: in vivo, windgrass (Apera spica-venti); conditions: foliage application, AAH 320 g/ha, evaluated three weeks after application
Summary of the method: as §1

[6] = system: green foxtail; experiment: Test Example 5: herbicidal effect by foliage application, plastic box (Table 20, symbol G); format: in vivo, green foxtail (Setaria viridis); conditions: foliage application; for G: green foxtail, herbicidal effect grade: 320 g/ha, three weeks after application
Summary of the method: as §1

[7] = system: late watergrass; experiment: Test Example 1: herbicidal activity, application before weed generation under submerged conditions (Table 16, symbol A); format: in vivo, late watergrass (Echinochloa oryzicola); conditions: for Herbicidal effect, A: late watergrass: amount of applied herbicide 320 g/ha
Summary of the method: (§3)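 Alluvial soil was flooded to 4 cm depth, weed seeds were sown mixed and 2.5-leaf rice seedlings were transplanted. On sowing day, the compound's emulsion, diluted in water to a set dose, was applied to the water surface. Plants grew at 25–30 °C and were scored 0–5 after three weeks.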

[8] = system: blackgrass; experiment: Test Example 5: herbicidal effect by foliage application, plastic box (Table 20, symbol J); format: in vivo, blackgrass (Alopecurus myosuroides); conditions: foliage application, AAH 320 g/ha, evaluated three weeks after application
Summary of the method: as §1

[9] = system: barnyard grass; experiment: Test Example 3: herbicidal effect by foliage application, Wagner pot (Table 18, symbol H); format: in vivo, barnyard grass (Echinochloa crus-galli); conditions: amount of applied herbicide 320 g/ha
Summary of the method: as §2

[10] = system: Italian ryegrass; experiment: Test Example 5: herbicidal effect by foliage application, plastic box (Table 20, symbol K); format: in vivo, Italian ryegrass (Lolium multiflorum); conditions: foliage application, AAH 320 g/ha, evaluated three weeks after application
Summary of the method: as §1

[11] = system: oval-leafed pondweed; experiment: Test Example 1: herbicidal activity, application before weed generation under submerged conditions (Table 16, symbol C); format: in vivo, oval-leafed pondweed (Monochoria vaginalis); conditions: for Herbicidal effect, C: oval-leafed pondweed: amount of applied herbicide 320 g/ha
Summary of the method: as §3

[12] = system: southern crabgrass; experiment: Test Example 5: herbicidal effect by foliage application, plastic box (Table 20, symbol F); format: in vivo, southern crabgrass (Digitaria ciliaris); conditions: foliage application; for F: southern crabgrass, herbicidal effect grade: 320 g/ha, three weeks after application
Summary of the method: as §1

[13] = system: persian speedwell; experiment: Test Example 5: herbicidal effect by foliage application, plastic box (Table 20, symbol R); format: in vivo, Persian speedwell (Veronica persica); conditions: foliage application, AAH 320 g/ha, evaluated three weeks after application
Summary of the method: as §1

[14] = system: lambsquarters; experiment: Test Example 5: herbicidal effect by foliage application, plastic box (Table 20, symbol O); format: in vivo, lambsquarters (Chenopodium album); conditions: foliage application; for O: lambsquarters, herbicidal effect grade: 320 g/ha, three weeks after application
Summary of the method: as §1

[15] = system: Japanese bulrush; experiment: Test Example 1: herbicidal activity, application before weed generation under submerged conditions (Table 16, symbol B); format: in vivo, Japanese bulrush (Schoenoplectus juncoides); conditions: for Herbicidal effect, B: Japanese bulrush: amount of applied herbicide 320 g/ha
Summary of the method: as §3

[16] = system: velvetleaf; experiment: Test Example 5: herbicidal effect by foliage application, plastic box (Table 20, symbol M); format: in vivo, velvetleaf (Abutilon theophrasti); conditions: foliage application; for M: velvetleaf, herbicidal effect grade: 320 g/ha, three weeks after application
Summary of the method: as §1

[17] = system: wild oat; experiment: Test Example 5: herbicidal effect by foliage application, plastic box (Table 20, symbol I); format: in vivo, wild oat (Avena fatua); conditions: foliage application, AAH 320 g/ha, evaluated three weeks after application
Summary of the method: as §1

[18] = system: southern crabgrass; experiment: Test Example 4: herbicidal effect by soil treatment (Table 19, symbol F); format: in vivo, southern crabgrass (Digitaria ciliaris); conditions: amount of applied herbicide 320 g/ha
Summary of the method: (§4)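 Soil-surface application: an emulsion agent diluted with water to the predetermined dose is sprayed uniformly over seeds lying under roughly 1.5 cm of sterilized diluvial soil. Boxes stay in a greenhouse at 25° C. to 30° C. Three weeks later, each species is graded on previously defined criteria.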

[19] = system: redroot pigweed; experiment: Test Example 4: herbicidal effect by soil treatment (Table 19, symbol N); format: in vivo, redroot pigweed (Amaranthus retroflexus); conditions: amount of applied herbicide 320 g/ha
Summary of the method: as §4

[20] = system: velvetleaf; experiment: Test Example 4: herbicidal effect by soil treatment (Table 19, symbol M); format: in vivo, velvetleaf (Abutilon theophrasti); conditions: amount of applied herbicide 320 g/ha
Summary of the method: as §4

[21] = system: green foxtail; experiment: Test Example 4: herbicidal effect by soil treatment (Table 19, symbol G); format: in vivo, green foxtail (Setaria viridis); conditions: amount of applied herbicide 320 g/ha
Summary of the method: as §4

[22] = system: barnyard grass; experiment: Test Example 4: herbicidal effect by soil treatment (Table 19, symbol H); format: in vivo, barnyard grass (Echinochloa crus-galli); conditions: amount of applied herbicide 320 g/ha
Summary of the method: as §4

[23] = system: lambsquarters; experiment: Test Example 4: herbicidal effect by soil treatment (Table 19, symbol O); format: in vivo, lambsquarters (Chenopodium album); conditions: amount of applied herbicide 320 g/ha
Summary of the method: as §4

[24] = AAH 320 g/ha, evaluated three weeks after application

Row | SMILES | herbicidal effect on D: Chinese sprangletop [2] | herbicidal effect on E: rice flat sedge [3] | herbicidal effect on H: barnyard grass [9] | N: redroot pigweed, herbicidal effect grade [1] | herbicidal effect, F: southern crabgrass [18] | H: barnyard grass, herbicidal effect grade [4] | G: green foxtail, herbicidal effect grade [6] | herbicidal effect, N: redroot pigweed [19] | Herbicidal effect, A: late watergrass [7] | herbicidal effect, M: velvetleaf [20] | herbicidal effect, G: green foxtail [21] | Herbicidal effect, C: oval-leafed pondweed [11] | F: southern crabgrass, herbicidal effect grade [12] | O: lambsquarters, herbicidal effect grade [14] | Herbicidal effect, B: Japanese bulrush [15] | M: velvetleaf, herbicidal effect grade [16] | herbicidal effect, H: barnyard grass [22] | herbicidal effect, O: lambsquarters [23] | further results
1 | CCCC(=O)Oc1c(C)nn(C)c(=O)c1-c1c(-c2ccc(Cl)cc2Cl)sc2ccc(F)cc12 [2-347] | 4 (Herbicidal rate of 70% or more and less than 90%) | 4 (Herbicidal rate of 70% or more and less than 90%) | 4 (Herbicidal rate of 70% or more and less than 90%) |  |  |  |  |  |  |  |  |  |  |  |  |  |  |  | N: redroot pigweed, herbicidal effect (criteria 0-5) [1, 24]: 0 (Herbicidal rate of 5% or less (almost no effect)); H: barnyard grass, herbicidal effect (criteria 0-5) [4, 24]: 0 (Herbicidal rate of 5% or less (almost no effect)); L: windgrass, herbicidal effect (criteria 0-5) [5]: 3 (Herbicidal rate of 40% or more and less than 70%); G: green foxtail, herbicidal effect (criteria 0-5) [6, 24]: 0 (Herbicidal rate of 5% or less (almost no effect)); Herbicidal effect on A: late watergrass (grade 0-5) ([7]; 320 g/ha applied herbicide): 3 (Herbicidal rate of 40% or more and less than 70%); J: blackgrass, herbicidal effect (criteria 0-5) [8]: 0 (Herbicidal rate of 5% or less (almost no effect)); K: Italian ryegrass, herbicidal effect (criteria 0-5) [10]: 0 (Herbicidal rate of 5% or less (almost no effect)); Herbicidal effect on C: oval-leafed pondweed (grade 0-5) ([11]; 320 g/ha applied herbicide): 0 (Herbicidal rate of 5% or less (almost no effect)); F: southern crabgrass, herbicidal effect (criteria 0-5) [12, 24]: 0 (Herbicidal rate of 5% or less (almost no effect)); R: persian speedwell, herbicidal effect (criteria 0-5) [13]: 4 (Herbicidal rate of 70% or more and less than 90%); O: lambsquarters, herbicidal effect (criteria 0-5) [14, 24]: 3 (Herbicidal rate of 40% or more and less than 70%); Herbicidal effect on B: Japanese bulrush (grade 0-5) ([15]; 320 g/ha applied herbicide): 0 (Herbicidal rate of 5% or less (almost no effect)); M: velvetleaf, herbicidal effect (criteria 0-5) [16, 24]: 0 (Herbicidal rate of 5% or less (almost no effect)); I: wild oat, herbicidal effect (criteria 0-5) [17]: 3 (Herbicidal rate of 40% or more and less than 70%)
2 | Cc1nn(C)c(=O)c(-c2c(-c3ccc(OCC[S+](C)[O-])cc3)sc3ccc(F)cc23)c1O (centres unmarked) [2-443] | 4 (Herbicidal rate of 70% or more and less than 90%) | 5 (Herbicidal rate of 90% or more (almost completely withered)) | 5 (Herbicidal rate of 90% or more (almost completely withered)) | 5 (Herbicidal rate of 90% or more (almost completely withered)) | 5 (Herbicidal rate of 90% or more (almost completely withered)) | 5 (Herbicidal rate of 90% or more (almost completely withered)) | 5 (Herbicidal rate of 90% or more (almost completely withered)) | 5 (Herbicidal rate of 90% or more (almost completely withered)) | 3 (Herbicidal rate of 40% or more and less than 70%) | 3 (Herbicidal rate of 40% or more and less than 70%) | 5 (Herbicidal rate of 90% or more (almost completely withered)) | 0 (Herbicidal rate of 5% or less (almost no effect)) | 5 (Herbicidal rate of 90% or more (almost completely withered)) | 5 (Herbicidal rate of 90% or more (almost completely withered)) | 0 (Herbicidal rate of 5% or less (almost no effect)) | 5 (Herbicidal rate of 90% or more (almost completely withered)) | 5 (Herbicidal rate of 90% or more (almost completely withered)) | 4 (Herbicidal rate of 70% or more and less than 90%) | 
3 | Cc1nn(C)c(=O)c(-c2c(-c3ccc(OCCS(C)(=O)=O)cc3)sc3ccc(F)cc23)c1O [2-444] | 4 (Herbicidal rate of 70% or more and less than 90%) | 5 (Herbicidal rate of 90% or more (almost completely withered)) | 5 (Herbicidal rate of 90% or more (almost completely withered)) | 5 (Herbicidal rate of 90% or more (almost completely withered)) | 5 (Herbicidal rate of 90% or more (almost completely withered)) | 5 (Herbicidal rate of 90% or more (almost completely withered)) | 5 (Herbicidal rate of 90% or more (almost completely withered)) | 5 (Herbicidal rate of 90% or more (almost completely withered)) | 3 (Herbicidal rate of 40% or more and less than 70%) | 3 (Herbicidal rate of 40% or more and less than 70%) | 5 (Herbicidal rate of 90% or more (almost completely withered)) | 0 (Herbicidal rate of 5% or less (almost no effect)) | 5 (Herbicidal rate of 90% or more (almost completely withered)) | 5 (Herbicidal rate of 90% or more (almost completely withered)) | 0 (Herbicidal rate of 5% or less (almost no effect)) | 5 (Herbicidal rate of 90% or more (almost completely withered)) | 4 (Herbicidal rate of 70% or more and less than 90%) | 5 (Herbicidal rate of 90% or more (almost completely withered)) | 
4 | CON=C(C)CSc1ccc(-c2sc3ccc(F)cc3c2-c2c(O)c(C)nn(C)c2=O)cc1 [2-451] | 3 (Herbicidal rate of 40% or more and less than 70%) | 5 (Herbicidal rate of 90% or more (almost completely withered)) | 5 (Herbicidal rate of 90% or more (almost completely withered)) | 5 (Herbicidal rate of 90% or more (almost completely withered)) | 0 (Herbicidal rate of 5% or less (almost no effect)) | 5 (Herbicidal rate of 90% or more (almost completely withered)) | 5 (Herbicidal rate of 90% or more (almost completely withered)) | 5 (Herbicidal rate of 90% or more (almost completely withered)) | 2 (Herbicidal rate of 20% or more and less than 40%) | 3 (Herbicidal rate of 40% or more and less than 70%) | 0 (Herbicidal rate of 5% or less (almost no effect)) | 0 (Herbicidal rate of 5% or less (almost no effect)) | 4 (Herbicidal rate of 70% or more and less than 90%) | 5 (Herbicidal rate of 90% or more (almost completely withered)) | 0 (Herbicidal rate of 5% or less (almost no effect)) | 5 (Herbicidal rate of 90% or more (almost completely withered)) | 0 (Herbicidal rate of 5% or less (almost no effect)) | 4 (Herbicidal rate of 70% or more and less than 90%) | 
